RP-LC retention time data for 78 compounds are collected here from the METLIN SMRT retention time set (Domingo-Almenara et al. 2019).

The nature of the data set: gradient 5% acetonitrile 3 min, to 50% in 2 min, to 85% in 15 min, held 3 min, 100 µL/min. Particulars: column: Zorbax Extend-C18 2.1 x 50 mm; eluents: water / acetonitrile, 0.1% formic acid. The method, boiled down: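 Retention time was recorded from adduct peaks, which were picked computationally and each inspected manually. Pure standards ran in mixtures of ~100 molecules on HPLC coupled to a quadrupole time-of-flight mass spectrometer, in positive and negative ionization mode, through a Zorbax Extend-C18 column (2.1 × 50 mm, 1.8 μm) at 100 μL/min. Eluents were water and acetonitrile, each with 0.1% formic acid.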
`CN1C(=O)c2cccnc2Sc2cc(NC(=O)C3CCCCC3)ccc21` came in with an RP-LC retention time of 828 s.

As to `O=C(Nc1nc2c(s1)CCC2)c1ccc2c(c1)OCO2`, the RP-LC retention time came out at 812 s.

`CCOC(=O)N1CCC2(CC1)N=C(c1ccc(F)cc1)CC(c1cccc(OC)c1O)N2` (stereo not drawn) registered an RP-LC retention time of 748 s.

For the compound `CCC(=O)NCc1nc2c(n1CC)CN(C(=O)c1cccc(C(F)(F)F)c1)CC2`, the RP-LC retention time stood at 603 s.

`O=C([C@@H]1C[C@H](F)CN1C(=O)NCc1ccc(OC(F)(F)F)cc1)N1CCCCC1`: the RP-LC retention time worked out at 809 s.

The compound `O=C(NCc1ccc(F)c(Cl)c1)c1csc(C(=O)NC2CCCC2)n1` returned an RP-LC retention time of 976 s.

Consider `COc1ccc(C(=O)N2CCC3(CC2)NC(=O)c2ccc(Cl)cc2N3)cc1OC`, for which the RP-LC retention time was 692 s.

Compound `COCCC1CCN(C(=O)Cc2c(C)noc2C)CC1` showed an RP-LC retention time of 636 s.

In the case of `CC(C)c1noc(C2CCCN(C(=O)NC3CCCCC3)CCC(=O)NCC2)n1` (stereo not drawn), the RP-LC retention time worked out at 752 s.

`COc1ccc(Cl)cc1NC(=O)C1Oc2ccccc2NC1=O` (stereo not drawn) registered an RP-LC retention time of 873 s.

Consider `Cn1cc(C2=CCN(S(=O)(=O)c3cccc(Cl)c3)CC2)c2cccnc21`, for which the RP-LC retention time was 1060 s.

`COc1ccc(CNC(=O)Cn2c(=O)c3cc(C4CC4)nn3c3ncccc32)cc1` returned an RP-LC retention time of 742 s.

`COc1ccc(C2C(=O)N(C3CCCCC3)CC(=O)N2Cc2ccc3c(c2)OCO3)cc1` (stereo not drawn) showed an RP-LC retention time of 893 s.

`O=C(O)c1ccccc1C(=O)Nc1cccc([N+](=O)[O-])c1` yielded an RP-LC retention time of 776 s.

As to `O=C(NCc1ccccc1F)C1CCCN(c2nc3ccsc3c(=O)n2Cc2ccccc2)C1` (stereo not drawn), the RP-LC retention time amounted to 943 s.

As to `O=C(O)CCCCCNc1nc(-c2ccccc2)nc2ccccc12`, the RP-LC retention time is 623 s.

The compound `CCOC(=O)CC1(NC(=O)N2CCN(c3nc4ccccc4n3CC)CC2)CCCCC1` yielded an RP-LC retention time of 703 s.

Take `COc1ccc(CNC(=O)C2CCN(S(=O)(=O)c3ccc4c(c3)sc(=O)n4C)CC2)cc1`: the RP-LC retention time is 795 s.

The compound `Cc1ccc(C(=O)Nc2cnc(N3CCCCCC3)nc2)s1` yielded an RP-LC retention time of 910 s.

As to `O=C1NCCCn2cc(S(=O)(=O)Nc3ccc(F)c(Cl)c3)cc21`, the RP-LC retention time came to 686 s.

The compound `COc1ccc(OCC(=O)N2CCN(c3nccn3-c3ccccc3F)CC2)cc1` returned an RP-LC retention time of 573 s.

For `Cc1nn(C)c(C)c1S(=O)(=O)N1CCC(c2noc(-c3ccccc3)n2)C1` (stereo not drawn), the RP-LC retention time is 856 s.

On to `Cc1ccc(CN(C)C(=O)NC(C)C)s1`, for which the RP-LC retention time amounted to 804 s.

Take `Cc1ccc(Nc2nc(-c3ccc(F)cc3F)cs2)nc1`: the RP-LC retention time turned out to be 1070 s.

Regarding `O=C(Cc1csc(SCc2ccncc2)n1)NCc1ccc2c(c1)OCO2`, the RP-LC retention time amounted to 568 s.

On to `O=C(CN1CCc2[nH]c3c(F)c(Cl)ccc3c(=O)c2C1)Nc1cc(F)cc(F)c1`, for which the RP-LC retention time amounted to 699 s.

`Nc1nc2c(cnn2CCc2ccccc2)c2nc(-c3ccco3)nn12` came in with an RP-LC retention time of 880 s.

Consider `CC(C)(CO)NC(=O)Cc1ccc(NS(=O)(=O)c2ccccc2Br)cc1`, for which the RP-LC retention time was 664 s.

Compound `O=C(Nc1ccc2c(c1)OCO2)N1CCN(c2ccc3nnc(C4CC4)n3n2)CC1` registered an RP-LC retention time of 613 s.

Regarding `COc1ccccc1N1CCN(C(=O)c2cn(-c3ccc(NC(C)=O)cn3)cn2)CC1`, the RP-LC retention time was found to be 646 s.

On to `COc1cccc(-n2c(N3CCCC(C(=O)Nc4ccc(Cl)cc4)C3)nc3ccsc3c2=O)c1` (stereo not drawn), for which the RP-LC retention time came to 1020 s.

For the compound `O=C(COc1ccccc1F)N1CCN(Cc2csc(-c3ccccc3)n2)CC1`, the RP-LC retention time was 606 s.

For the compound `O=C(NCc1cccnc1)c1ccc(-c2ccc(N3CCSCC3)nc2)cc1`, the RP-LC retention time came to 582 s.

Turning to `COc1ccc(C(=O)N2C[C@@H](Oc3cccnc3)C[C@H]2C(N)=O)c(OC)n1`, the RP-LC retention time was found to be 572 s.

`CCNc1cc(N2CCCC(CCC(=O)Nc3ccc(OC)cc3OC)C2)ncn1` (stereo not drawn): the RP-LC retention time was 671 s.

In turn, `CCc1ccc(-n2nnc(C(=O)NCCOC)c2-c2ccncc2)cc1` returned an RP-LC retention time of 725 s.

Regarding `Cc1cccc(NC(=O)N2c3ccccc3NC3=C(C(=O)CCC3)C2c2ccco2)c1C` (stereo not drawn), the RP-LC retention time worked out at 813 s.

For `CCN1c2cc(Cl)ccc2C(=O)NC12CCN(C(=O)Nc1ccc3c(c1)OCO3)CC2`, the RP-LC retention time came to 826 s.

For `COc1cc(OC)cc(C(=O)Nc2ccc3sccc3c2)c1`, the RP-LC retention time is 882 s.

As for `CC(C)NC(=O)c1ccc(-c2nc3cc(NS(=O)(=O)c4cc(F)cc(F)c4)ccc3n2C)cc1`, the RP-LC retention time is 718 s.

As for `CCN1CCN(S(=O)(=O)c2c(C)nn(-c3ccc(-c4ccc(C)cc4)nn3)c2C)CC1`, the RP-LC retention time worked out at 708 s.

For the compound `CC(C)C(=O)Nc1c(C(=O)N2CCN(c3ccccn3)CC2)oc2ccccc12`, the RP-LC retention time was found to be 649 s.

The compound `O=C(Nc1nccnc1C(=O)NCCCN1CCOCC1)c1ccccc1` yielded an RP-LC retention time of 551 s.

As to `Cc1cccc(S(=O)(=O)N2CCC(C)(C(=O)NCc3ccc(F)cc3)CC2)c1`, the RP-LC retention time was 936 s.

Compound `CCn1cc(-c2nc(C)c(C(=O)Nc3ccccc3C)s2)c2cccnc21` showed an RP-LC retention time of 980 s.

The compound `CNC(=O)N1CCCC(c2cccc(C(=O)N3CCN(c4ccccc4F)CC3)c2)C1` (stereo not drawn) had an RP-LC retention time of 834 s.

Turning to `Cc1cccc(Sc2nccnc2N2CCC(C(=O)N3CCOCC3)CC2)c1`, the RP-LC retention time amounted to 900 s.

`CC(C)OC(=O)CCC/C=C\C[C@@H]1[C@@H](/C=C/[C@@H](O)COc2cccc(C(F)(F)F)c2)[C@H](O)C[C@@H]1O` gave an RP-LC retention time of 955 s.

Turning to `Cn1nc(CN2CCOCC2)c2c1CCN(S(=O)(=O)c1cc(F)cc(F)c1)C2`, the RP-LC retention time stood at 642 s.

As for `COc1ccc(NC(=O)N2CCCC(C)(C(=O)NCc3ccccc3C)C2)c(OC)c1` (stereo not drawn), the RP-LC retention time stood at 866 s.

As to `CCN(CC)S(=O)(=O)c1cccc(-c2nc(-c3ccc(C)cc3)no2)c1`, the RP-LC retention time was 1320 s.

Compound `Cc1ccccc1CNC(=O)C1CCN(S(=O)(=O)c2c(C)[nH]c(C)c2C(=O)N2CCCC2)CC1` gave an RP-LC retention time of 727 s.

`O=C(NC1CCCCC1)C1CCN(S(=O)(=O)c2cc(C(=O)N3CCOCC3)cs2)CC1` displayed an RP-LC retention time of 710 s.

`CCOCCOC(=O)C1=C(C)NC2=C(C(=O)C(C(=O)OC)C(C)C2)C1c1cccc(Cl)c1` (stereo not drawn) showed an RP-LC retention time of 931 s.

In turn, `COc1cccc2sc(NC(=O)c3coc4ccccc4c3=O)nc12` had an RP-LC retention time of 921 s.

`CCn1c(=O)c(N2CCN(C(=O)Nc3cc(Cl)c(OC)cc3OC)CC2)nc2cccnc21` came in with an RP-LC retention time of 982 s.

As for `CCOCCCNC(=O)C(C)Oc1ccc(=O)n(-c2ccc(C)c(C)c2)n1` (stereo not drawn), the RP-LC retention time was found to be 871 s.

The compound `COCCNC(=O)N1c2ccccc2NC2=C(C(=O)CC(C)(C)C2)C1c1ccccc1OC` (stereo not drawn) registered an RP-LC retention time of 725 s.

Regarding `CC1Oc2ccc(-c3csc(NC(=O)C4CC4)n3)cc2N(C)C1=O` (stereo not drawn), the RP-LC retention time was found to be 787 s.

As for `O=C(Nc1ccc2c(c1)C(=O)N1CCCCC1CCO2)c1ccco1` (stereo not drawn), the RP-LC retention time worked out at 692 s.

In turn, `Cc1cc(NC(=O)Cc2nn(C)c(=O)c3ccccc23)ccc1Br` displayed an RP-LC retention time of 856 s.

The compound `O=C(NCc1ccc(F)cc1)Nc1ccc(-c2nc(-c3ccccc3)co2)cc1` registered an RP-LC retention time of 1050 s.

As to `CC(C)S(=O)(=O)c1cc2c(cc1NC(=O)c1ccc(F)cc1)n(C)c(=O)n2C`, the RP-LC retention time was determined as 788 s.

Consider `CN1C(=O)C2(CCN(C(=O)c3ccc(F)cc3)C2)c2ccccc21` (stereo not drawn), for which the RP-LC retention time worked out at 764 s.

In the case of `COc1cccc(-c2nc(-c3ccc4c(c3)oc(=O)n4C(C)C)no2)c1OC`, the RP-LC retention time was determined as 1140 s.

For `O=C(NCc1nnnn1C1CCCCC1)C1CC1`, the RP-LC retention time was determined as 647 s.

Regarding `Cc1cc(C)cc(Oc2nccn3c(=O)n(CC(=O)Nc4cccc(Cl)c4C)nc23)c1`, the RP-LC retention time came to 992 s.

For the compound `CCC(=O)N(C1CCOCC1)C1CCN(S(=O)(=O)c2ccc(F)c(Cl)c2)CC1`, the RP-LC retention time was 884 s.

The compound `CCn1cc(C(=O)N[C@@H](Cc2ccccc2)C(=O)O)c(=O)c2cc3c(cc21)OCO3` yielded an RP-LC retention time of 728 s.

`CN(Cc1cc(C(F)(F)F)ccc1Cl)C1CCc2nn(C)c(=O)n2CC1` (stereo not drawn) returned an RP-LC retention time of 610 s.

As for `O=C(NC1CC1)[C@@H]1C[C@H](Oc2ccccc2)CN1C(=O)CC1CCCC1`, the RP-LC retention time is 818 s.

Regarding `Cc1nc(-c2noc(-c3cccnc3)n2)cn1CC(=O)Nc1ccc(F)cc1`, the RP-LC retention time is 687 s.

With `Cc1ccc(CN(Cc2ccc(-c3ccccc3S(=O)(=O)NC#N)cc2)C(=O)c2ccccc2Cl)cc1`, the RP-LC retention time was 1060 s.

With `CCc1ccc(-c2csc(Nc3ccc(S(=O)(=O)Nc4nc(C)cc(C)n4)cc3)n2)cc1`, the RP-LC retention time was 1040 s.

Take `CCc1noc(NC(C)=O)c1-c1ccc(OC)c(S(=O)(=O)N2CCc3ccccc32)c1`: the RP-LC retention time turned out to be 860 s.

For `COc1cc(CNC(=O)c2cn3cc(C)ccc3n2)cc(OC)c1`, the RP-LC retention time is 604 s.

In turn, `O=C(Nc1cc(Cl)ccc1Cl)C1CN(C(=O)c2ccc(F)c(F)c2)C1` had an RP-LC retention time of 862 s.

On to `CC(CCNC(=O)C1CCN(c2nc3cccnc3s2)CC1)N1CCCC1` (stereo not drawn), for which the RP-LC retention time came out at 580 s.
